Experimental data taken from patent US20110319431A1, “Bis Aromatic Compounds for Use as LTC4 Synthase Inhibitors” (BIOLIPOX AB, priority 2009, published 2011).

target: T1, Recombinant human LTC4 synthase (Homo sapiens, UniProt Q16873); assay: In vitro LTC4 synthase assay (LTA4 to LTC4, HTRF detection); type: biochemical; conditions: 5 min; total concentration of title compounds in the assay 10 μM
T1 construct: made in house; host or cells: Pichia pastoris
T1 sequence (Q16873 1-150): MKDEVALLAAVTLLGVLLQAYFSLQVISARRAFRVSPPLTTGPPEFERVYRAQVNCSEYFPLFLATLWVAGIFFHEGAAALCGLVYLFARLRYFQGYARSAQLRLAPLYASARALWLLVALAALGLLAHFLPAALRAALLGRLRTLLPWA
Procedure: In the assay, LTC4 synthase catalyses the reaction where the substrate LTA4 is converted to LTC4. Recombinant human LTC4 synthase is expressed in Piccia pastoralis and the purified enzyme is dissolved in 25 mM tris-buffer pH 7.8 supplemented with 0.1 mM glutathione (GSH) and stored at −80° C. The assay is performed in phosphate buffered saline (PBS) pH 7.4 and 5 mM GSH in 384-well plates.
The following is added chronologically to each well:
1. 48 μL LTC4 synthase in PBS with 5 mM GSH. The total protein concentration in this solution is 0.5 μg/mL. 2. 1 μL inhibitor in DMSO (final concentration 10 μM). 3. Incubation of the plate at room temperature for 10 min. 4. 1 μL LTA4 (final concentration 2.5 μM). 5. Incubation of the plate at room temperature for 5 min. 6. 10 μL of the incubation mixture is analysed using homogenous time resolved fluorescent (HTRF) detection.

Compound | inhibition at 10 µM
CN(c1ccc(Cl)cc1)c1ccc(C(=O)c2ccc(Sc3ccc(F)c(F)c3)c(C(=O)O)c2)cc1 [2:3, 5-{4-[(4-Chlorophenyl)(methyl)amino]benzoyl}-2-(3,4-difluorophenyl-sulfanyl)benzoic acid] | 96%
CCCCCC[S+]([O-])c1ccc(C(=O)c2ncc(N(C)c3ccc(Cl)cc3)cn2)cc1C(=O)O (centres unmarked) [Example 1:21, 5-(5-((4-Chlorophenyl)(methyl)amino)pyrimidine-2-carbonyl)-2-(1-hexylsulfinyl)-benzoic acid] | 99%
CCCCCCS(=O)(=O)c1ccc(C(=O)c2ccc(N(C)c3ccc(Cl)cc3)cc2)cc1C(=O)O [Example 3:1, 5-{4-[(4-Chlorophenyl)(methyl)amino]benzoyl}-2-(1-hexylsulfonyl)benzoic acid] | 97%
CCCCCC[S+]([O-])c1ccc(C(=O)c2ccc(N(C)c3ccc(Cl)cc3)cc2)cc1C(=O)O (centres unmarked) [Example 1:1, 5-{4-[(4-Chlorophenyl)(methyl)amino]benzoyl}-2-(1-hexylsulfinyl)benzoic acid] | 100%
CN(c1ccc(Cl)cc1)c1ccc(C(=O)c2ccc([S+]([O-])c3ccc(F)c(F)c3)c(C(=O)O)c2)cc1 (centres unmarked) [1:3, 5-{4-[(4-Chlorophenyl)(methyl)amino]benzoyl}2-(3,4-difluorophenylsulfinyl)-benzoic acid] | 100%

same assay, conditions: Table 4, title compounds of Example 4

Compound | IC50
CCCCCCSc1cc(C(=O)O)cc(C(=O)c2ccc(N(C)c3ccc(Cl)cc3)cn2)c1 [4:3, 3-{5-[(4-Chlorophenyl)(methyl)amino]picolinoyl}-5-(1-hexyl)-sulfanylbenzoic acid] | 215 nM
CN(c1ccc(Cl)cc1)c1ccc(C(=O)c2cc(Sc3ccccc3)cc(C(=O)O)c2)cc1 [4:10, 3-{4-[(4-Chlorophenyl)(methyl)amino]benzoyl}-5-(phenysulfanyl)benzoic acid] | 175 nM
CCCCCC[S+]([O-])c1cc(C(=O)O)cc(C(=O)c2ccc(N(C)c3ccc(Cl)cc3)cn2)c1 (centres unmarked) [Example 4:2, 3-{5-[(4-Chlorophenyl)(methyl)amino]picolinoyl}-5-(1-hexylsulfinyl)-benzoic acid] | 404 nM
CN(c1ccc(Cl)cc1)c1ccc(C(=O)c2cc(Sc3cccc(Cl)c3)cc(C(=O)O)c2)cc1 [4:6, 3-{4-[(4-Chlorophenyl)(methyl)amino]benzoyl}-5-(3-chlorophenyl-sulfanyl)benzoic acid] | 165 nM
COc1cccc(Sc2cc(C(=O)O)cc(C(=O)c3ccc(N(C)c4ccc(Cl)cc4)cc3)c2)c1 [4:5, 3-{4-[(4-Chlorophenyl)(methyl)amino]benzoyl}-5-(3-methoxyphenyl-sulfanyl)benzoic acid] | 143 nM
CN(c1ccc(Cl)cc1)c1ccc(C(=O)c2cc(Sc3cccc(OC(F)(F)F)c3)cc(C(=O)O)c2)cc1 [4:8, 3-{4-[(4-Chlorophenyl)(methyl)amino]benzoyl}-5-(3-(trifluoromethoxy)-phenylsulfanyl)benzoic acid] | 148 nM

same assay, conditions: title compounds of the Examples

Compound | IC50
CN(c1ccc(Cl)cc1)c1ccc(C(=O)c2cc(Sc3ccccc3)cc(C(=O)O)c2)cc1 [2:30, 3-(4-((4-Chlorophenyl)(methyl)amino)benzoyl)-5-(phenysulfanyl)benzoic acid] | 175 nM
CN(c1ccc(Cl)cc1)c1ccc(C(=O)c2ccc([S+]([O-])C34CC5CC(CC(C5)C3)C4)c(C(=O)O)c2)cc1 (centres unmarked) [1:6, 2-(1-Adamantylsulfinyl)-5-{4-[(4-chlorophenyl)methylamino]benzoyl}benzoic acid] | 96 nM
CN(c1ccc(Cl)cc1)c1ccc(C(=O)c2cc(Sc3ccccc3)cc(C(=O)O)c2)nc1 [2:24, 3-{5-[(4-Chlorophenyl)methylamino]pyridine-2-carbonyl}-5-phenylsulfanyl-benzoic acid] | 135 nM
CN(c1ccc(Cl)cc1)c1ccc(C(=O)c2ccc([S+]([O-])C3CCCCC3)c(C(=O)O)c2)cc1 (centres unmarked) [1:5, 5-{4-[(4-Chlorophenyl)(methyl)amino]benzoyl}-2-(cyclohexylsulfinyl)benzoic acid] | 134 nM
O=C(c1ccc([S+]([O-])c2ccc(Br)cc2)c(C(=O)O)c1)c1ccc(N(CC2CC2)c2ccc(Cl)cc2)cn1 (centres unmarked) [1:17, 2-(4-Bromophenylsulfinyl)-5-{5-[(4-chlorophenyl)cyclopropylmethylamino]-pyridine-2-carbonyl}benzoic acid] | 34 nM
O=C(c1ccc(Sc2ccc(F)cc2)c(C(=O)O)c1)c1ccc(N(CC2CC2)c2ccc(Cl)cc2)cn1 [2:11, 5-{5-[(4-Chlorophenyl)cyclopropylmethylamino]pyridine-2-carbonyl}-2-(4-fluorophenylsulfanyl)benzoic acid] | 46 nM
CN(c1ccc(Cl)cc1)c1ccc(C(=O)c2ccc(Sc3ccc(F)c(F)c3)c(C(=O)O)c2)cc1 [2:3, 5-{4-[(4-Chlorophenyl)(methyl)amino]benzoyl}-2-(3,4-difluorophenyl-sulfanyl)benzoic acid] | 51 nM
CCCCCC[S+]([O-])c1ccc(C(=O)c2ncc(N(C)c3ccc(Cl)cc3)cn2)cc1C(=O)O (centres unmarked) [Example 1:21, 5-(5-((4-Chlorophenyl)(methyl)amino)pyrimidine-2-carbonyl)-2-(1-hexylsulfinyl)-benzoic acid] | 54 nM
CCCCCCS(=O)(=O)c1ccc(C(=O)c2ccc(N(C)c3ccc(Cl)cc3)cc2)cc1C(=O)O [Example 3:1, 5-{4-[(4-Chlorophenyl)(methyl)amino]benzoyl}-2-(1-hexylsulfonyl)benzoic acid] | 398 nM
CN(c1ccc(Cl)cc1)c1ccc(C(=O)c2ccc([S+]([O-])Cc3ccccc3)c(C(=O)O)c2)cc1 (centres unmarked) [1:9, 2-(Benzylsulfinyl)-5-{4-[(4-chlorophenyl)(methyl)amino]benzoyl}benzoic acid] | 109 nM
CCCCCC[S+]([O-])c1ccc(C(=O)c2ccc(N(C)c3ccc(Cl)cc3)cc2)cc1C(=O)O (centres unmarked) [Example 1:1, 5-{4-[(4-Chlorophenyl)(methyl)amino]benzoyl}-2-(1-hexylsulfinyl)benzoic acid] | 56 nM
CN(c1ccc(Cl)cc1)c1ccc(C(=O)c2ccc([S+]([O-])c3ccc(F)c(F)c3)c(C(=O)O)c2)cc1 (centres unmarked) [1:3, 5-{4-[(4-Chlorophenyl)(methyl)amino]benzoyl}2-(3,4-difluorophenylsulfinyl)-benzoic acid] | 107 nM
CN(c1ccc(Cl)cc1)c1ccc(C(=O)c2ccc([S+]([O-])c3ccccc3)c(C(=O)O)c2)cc1 (centres unmarked) [1:8, 5-{4-[(4-Chlorophenyl)(methyl)amino]benzoyl}-2-(phenylsulfinyl)benzoic acid] | 82 nM
O=C(c1ccc(Sc2ccc(F)c(F)c2)c(C(=O)O)c1)c1ccc(N(CC2CC2)c2ccc(Cl)cc2)cn1 [2:16, 5-{5-[(4-Chlorophenyl)cyclopropylmethylamino]pyridine-2-carbonyl}-2-(3,4-difluorophenylsulfanyl)benzoic acid] | 41 nM
CCCCCC[S+]([O-])c1cc(C(=O)O)cc(C(=O)c2ccc(N(C)c3ccc(Cl)cc3)cn2)c1 (centres unmarked) [Example 1:20, 3-{5-[(4-Chlorophenyl)methylamino]pyridine-2-carbonyl}-5-(1-hexylsulfinyl)-benzoic acid] | 404 nM
COc1ccc(Sc2ccc(C(=O)c3ccc(OCc4cccc(Cl)c4)cn3)cc2C(=O)O)cc1 [Example 2:22, 5-[5-(3-Chlorobenzyloxy)pyridine-2-carbonyl]-2-(4-methoxyphenyl-sulfanyl)benzoic acid] | 252 nM
O=C(c1ccc(Sc2ccc(C(F)(F)F)cc2)c(C(=O)O)c1)c1ccc(N(CC2CC2)c2ccc(Cl)cc2)cn1 [2:13, 5-{5-[(4-Chlorophenyl)cyclopropylmethylamino]pyridine-2-carbonyl}-2-(4-trifluoromethylphenylsulfanyl)benzoic acid] | 129 nM
COc1cccc(Sc2ccc(C(=O)c3ccc(N(CC4CC4)c4ccc(Cl)cc4)cn3)cc2C(=O)O)c1 [2:19, 5-{5-[(4-Chlorophenyl)cyclopropylmethylamino]pyridine-2-carbonyl}-2-(3-methoxy-phenylsulfanyl)-benzoic acid] | 81 nM
CN(c1ccc(Cl)cc1)c1ccc(C(=O)c2ccc(SCC34CCC(CC3O)C4(C)C)c(C(=O)O)c2)cc1 (centres unmarked) [2:4, 5-{4-[(4-Chlorophenyl)methylamino]benzoyl}-2-(2-hydroxy-7,7-dimethyl-bicyclo[2.2.1]-1-heptylmethylsulfanyl)benzoic acid] | 130 nM
CCCCCCSc1ccc(C(=O)c2ccc(N(CC3CC3)c3ccc(Cl)cc3)cn2)cc1C(=O)O [2:15, 5-{5-[(4-Chlorophenyl)cyclopropylmethylamino]pyridine-2-carbonyl}-2-(1-hexylsulfanyl)benzoic acid] | 96 nM
CCCC[S+]([O-])c1ccc(C(=O)c2ccc(N(C)c3ccc(Cl)cc3)cc2)cc1C(=O)O (centres unmarked) [1:7, 2-(1-Butylsulfinyl)-5-{4-[(4-chlorophenyl)(methyl)amino]benzoyl}benzoic acid] | 160 nM
O=C(c1ccc(N(CC2CC2)c2ccc(Cl)cc2)cc1)c1ccc(Sc2ccccc2)c(C(=O)O)c1 [2:8, 5-{4-[(4-Chlorophenyl)cyclopropylmethylamino]benzoyl}-2-phenylsulfanyl-benzoic acid] | 74 nM
CCCCCCSc1cc(C(=O)O)cc(C(=O)c2ccc(N(C)c3ccc(Cl)cc3)cn2)c1 [2:23, 3-{5-[(4-Chlorophenyl)methylamino]pyridine-2-carbonyl}-5-(1-hexyl)-sulfanylbenzoic acid] | 215 nM
O=C(c1ccc([S+]([O-])c2ccc(C(F)(F)F)cc2)c(C(=O)O)c1)c1ccc(N(CC2CC2)c2ccc(Cl)cc2)cn1 (centres unmarked) [Example 1:14, 5-{5-[(4-Chlorophenyl)cyclopropylmethylamino]pyridine-2-carbonyl}-2-(4-tri-fluoromethylphenylsulfinyl)benzoic acid] | 48 nM
